Assay results: patent US11535599B2, “Benzisoxazole derivative” (Sumitomo Pharma Co., Ltd., priority 2020, dated 2022)

Experiments:
[1] = test system: levodopa-induced dyskinesia in 6-OHDA unilateral lesion model; assay: Effect for inhibiting levodopa-induced dyskinesia; assay type: in vivo, rat; conditions: Examples 30 or 100 mg/kg, rasagiline 0.2 or 0.6 mg/kg, daily for two weeks
Excerpt: A unilateral lesion model of nigrostriatal dopamine neuron induced with 6-hydroxydopamine (6-OHDA) is broadly used for evaluating the drug efficacy for treating Parkinson's disease, as mentioned in Test 2. In addition, it is known that dyskinesia is developed when the present model receives repetitive administration of levodopa, which is similar to the phenomenon that patients of Parkinson's disease who have received long-term administration of levodopa develop dyskinesia. With the present model, the effect of the present compound on the dyskinesia induced by repetitive administration of levodopa was evaluated. As shown in Test 2, a unilateral lesion model of nigrostriatal dopamine neuron was prepared. One day before starting the repetitive administration of levodopa, levodopa methyl ester hydrochloride (5.86 mg/kg) containing benserazide hydrochloride ([…]) (whose ratio was 4:1 in terms of free form) was intraperitoneally administered to the model, and the rotational behavior of the model was observed from 20 minutes to 140 minutes after the administration. The models were classified considering three factors of the total rotation number (20-140 minutes after the administration), the later term of the rotation (120-140 minutes after the administration), and the rotational duration, so that the dispersion of each group could be equal. Two days after the classification, the repetitive administration of levodopa methyl ester hydrochloride (6 mg/kg) and benserazide hydrochloride (12 mg/kg) once a day for two weeks was started. […] The evaluation of dyskinesia was done after one week and two weeks of the repetitive administration. […]

Rat striatum MAOB = Rat striatum MAOB (Rattus norvegicus (Rat), UniProt P19643); assay: Activity for inhibiting monoamine oxidase B (MAOB); assay type: biochemical; conditions: [14C] β-PEA substrate; read-out: Rat striatum MAOB IC50
Description: MAOB is an enzyme involved in oxidative de-amino acid reaction of an endogenous monoamine neurotransmitter such as dopamine. […] The effect of the present compounds for inhibiting MAOB in rat striatum and simian striatum was tested.
Mitochondria⋅synaptosome fraction containing MAOB was prepared according to the following procedure. To striata of male Slc: Wistar rat (Japan SLC, Inc.) or male cynomolgus monkey (HAMRI CO., LTD.) was added 0.32 mol/L aqueous sucrose by 10 mL per 1 gram as wet weight of the tissue, and the mixture was homogenized. The homogenate was centrifuged at 4° C. at 1,000 g for 10 minutes, and the obtained supernatant was centrifuged again at 4° C. at 17,200 g for 20 minutes. To the obtained precipitate was added a prepared buffer solution (10 mmol/L Tris-HCl buffer solution (pH 7.4), 0.25 mol/L aqueous sucrose, 0.5 mmol/L EDTA-2K) by 10 mL per 1 gram as wet weight of the original tissue, and the mixture was centrifuged again at 4° C. at 17,200 g for 20 minutes. To the obtained precipitate was added the prepared buffer solution by 40 mL per 1 gram as wet weight of the original tissue. The mixture was suspended to be used as an enzyme homogenate solution.
As a substance to be degraded by MAOB, ^14C-labeled β-phenylethylamine ([^14C] β-PEA) was used. [^14C] β-PEA and the present compound solution diluted to each concentration were incubated with the enzyme homogenate solution at 37° C. for a given period, and then the reaction was stopped by adding 3 mol/L cold HCl thereto. The reaction product was extracted with a mixture of water-saturated toluene and ethyl acetate (1:1). The supernatant organic layer was separated, a liquid scintillation cocktail (ACSII, GE Healthcare) was added to the separated organic layer, and the radioactivity was measured with a liquid scintillation counter (TRI-CARB 3100TR, Packard). The IC50 value of each compound was determined based on two parameter logistic model with the inhibitory data of each concentration, said data were obtained from plural trials.

human CA-II = human CA-II (Homo sapiens (Human), UniProt P00918); assay: Activity for inhibiting carbonic anhydrase (CA); assay type: biochemical; conditions: 4-nitrophenyl acetate substrate
Description: CA is a zinc metalloenzyme family which catalyzes reversible hydration between carbon dioxide, and bicarbonate and proton.
As a substance for decomposition by CA-II, 4-nitrophenyl acetate was used herein. 4-Nitrophenyl acetate is […] with CA-II to produce 4-nitrophenol. […] To the diluted solution were added […] (final concentration: 5 mmol/L) and the present compound of each concentration, and the mixture was incubated at 37° C. under shading for 30 minutes. […] The IC50 of the compound was obtained through the two-parameter logistic model with the inhibitory rate data in each concentration which was obtained from plural trials.

[2] = test system: oxaliplatin chemotherapy-induced peripheral neuropathy model; assay: Anti-allodynia effect in chemotherapy-induced peripheral neuropathy model (acetone test); assay type: in vivo, rat; conditions: Example 13 100 mg/kg oral once a day 17 times; duloxetine 30 mg/kg oral single
Excerpt: As one of chemotherapy-induced peripheral neuropathy, sensory disturbance due to neuropathy caused by a platinating agent that is an anticancer agent such as cisplatin and oxaliplatin is known, and the symptom is difficult to be recovered even after the medication is discontinued. The therapeutic effect for sensory disturbance caused by repetitive administration of oxaliplatin was studied in the present test.
To male Crl: CD (SD) rats (7 weeks old) (CHARLES RIVER LABORATORIES JAPAN, INC.), oxaliplatin (5 mg/kg) was intraperitoneally administered for the two consecutive days in a week, totally 6 times, to prepare chemotherapy-induced peripheral neuropathy models. The compound of Example 13 (100 mg/kg) was repeatedly orally administered once a day, totally 17 times. […] In the acetone test, 0.1 mL of acetone was sprayed to the foot sole of the rat hind paw, and the reaction was evaluated according a scoring (Cold Score). When there was no reaction for 20 seconds after spraying acetone, Score 0 was recorded and the observation was stopped. When there was any reaction for the 20 seconds, the observation was continued until 40 seconds after spraying, and the score was recorded according to the evaluation scale. The acetone spray was done twice each for right and left hind paws, and the total score was calculated. […]

Rat striatum MAOB, sequence (P19643 whole entry): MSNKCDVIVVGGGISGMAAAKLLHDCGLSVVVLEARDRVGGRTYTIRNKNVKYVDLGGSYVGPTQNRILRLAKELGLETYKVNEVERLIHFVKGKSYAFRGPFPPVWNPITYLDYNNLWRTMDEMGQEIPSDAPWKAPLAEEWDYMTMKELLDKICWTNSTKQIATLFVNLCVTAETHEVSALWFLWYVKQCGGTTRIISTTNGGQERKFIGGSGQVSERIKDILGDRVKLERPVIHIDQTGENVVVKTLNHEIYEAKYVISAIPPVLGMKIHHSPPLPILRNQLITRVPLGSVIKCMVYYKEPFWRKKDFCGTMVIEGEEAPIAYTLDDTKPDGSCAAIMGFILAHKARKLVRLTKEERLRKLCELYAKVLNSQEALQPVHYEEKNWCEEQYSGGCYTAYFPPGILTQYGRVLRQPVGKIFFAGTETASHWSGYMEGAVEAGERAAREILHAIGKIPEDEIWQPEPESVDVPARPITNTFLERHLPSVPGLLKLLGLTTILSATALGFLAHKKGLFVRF

| SMILES | dyskinesia induced by repetitive administration of levodopa (AIMS score) [1] | IC50 (Rat striatum MAOB) | IC50 (human CA-II) | Cold Score in acetone test [2] |
| --- | --- | --- | --- | --- |
| CC(c1noc2ccccc12)S(N)(=O)=O (stereo not shown) [Example 1, 1-(Benzo[d]isoxazol-3-yl)ethane-1-sulfonamide] | the onset of dyskinesia induced by repetitive administration of levodopa was inhibited | 349 µM | 26.5 µM |  |
| C[C@H](c1noc2ccccc12)S(N)(=O)=O [Example 13, (1R)-1-(1,2-benzoxazol-3-yl)ethane-1-sulfonamide] | the onset of dyskinesia induced by repetitive administration of levodopa was inhibited | > 600 µM | 18.2 µM | significantly lower Cold Score |
